Experimental data from patent US20080009546A1 (Chevron U.S.A. Inc., priority 2005, published 2008).
Read-outs that look alike come from different tables or passages of the source.

Key:
[1] = target: NMDA receptor; assay: [3H]MK-801 binding assay, NMDA receptors in guinea pig brain membranes; conditions: for Relative affinity: compared to that of Memantine
Description: Hartley guinea pigs were sacrificed, and their brains were quickly removed and weighed. The brains then were homogenized in 50 mM Tris HCl buffer, pH 7.7, using a Polytron homogenizer. The homogenate was centrifuged at 40,000×g for 15 min, rehomogenized, and centrifuged again. The final pellet was resuspended in Tris-HCl, pH 7.7, at a final concentration of 6.67 mg original wet weight of tissue/ml. […] The samples were then filtered through glass fiber filters on a Tomtec cell harvester. The filters were washed 3 times with 3 ml of cold buffer. Filters were dried overnight and counted next day on a Wallac Betaplate Reader.
The binding experiments were conducted as follows. […] For each compound, graphs were prepared containing individual competition curves obtained for that compound. IC50 values and Hill coefficients were calculated using the program Prism. Ki values were calculated using the Chang Prusoff transformation: Ki=IC50/(1+L/Kd)
where L is radioligand concentration and Kd is the binding affinity of the radioligand, as determined previously by saturation analysis. […] In each experiment, one standard compound was simultaneously run on each 96 well plate.

[2] = system: primary neurons from rat cerebral cortex; assay: NMDA-induced LDH release assay in primary cortical neurons (neuroprotection); format: cell-based; set-up: Total LDH (Avg): unit not given here; conditions: MDT compound 30 uM, 24 hour incubation
Description: The neuroprotective properties of drugs have been studied in vitro, using neurons cultured from cortex, cerebellum or retina. […] Neurotoxicity is determined in this assay by measuring lactate dehydrogenase (LDH), a method which is simple, accurate and reproducible. We conducted pilot studies to test if poly-lysine-coated plates would be suitable as a matrix upon which to plate fetal neurons, compared to astrocyte-coated plates. We also compared the use of growth medium to neurobasal medium supplemented with B27 in the pilot experiments. The concentrations of NMDA (300-500 μM), glycine (10-50 μM), and memantine (10-100 μM) were varied, and optimum concentrations and times determined from these pilot studies were then chosen for the main study. The assay is described below.
Fetal rat neocortical cells were cultured on a mouse astroglial feeder layer. To obtain mouse astroglial cells for the feeder layer, cortices were harvested from 1-day old Swiss Webster mice (Charles River, Hollister, Calif.) according to the procedure described by Rose et al (1993). After dissecting cortices in ice-cold dissecting medium, they were minced and incubated in 0.09% trypsin in media stock for 1 hr, followed by resuspension in growth medium containing 10% equine serum and 10% fetal bovine serum. A single-cell suspension was obtained by triturating through fire-bored glass pipettes, and the resulting cell suspension was plated at a density of 0.5-0.75 hemispheres/24-well plate/9.6 ml, with 0.4 ml/well. Plates were incubated in a humidified incubator at 37° C., 5% CO2. Astroglial cells become confluent in about 2-3 weeks, at which time these cultures are ready to be used as feeder layers upon which neuronal cultures can be plated. Neuronal cells were obtained from gestational Sprague-Dawley rats E16-E18, using a similar dissection procedure. Rat embryos were dissected to obtain cortical tissue, which was plated as a single-cell suspension at a density of 1.4 hemispheres/24-well plate/9.6 ml, with 0.4 ml/well. These cells were plated on the existing astroglial feeder layer, and were incubated at 37° C., 5% CO2. After 5 days in culture, cytosine arabinoside (10 μM) was added to the wells to inhibit glial cell proliferation, and after 24 hours, the medium was replaced with fresh growth medium. Cells were fed with fresh growth medium every 2 days, until the experiments were performed. For coating plates with poly-lysine, we used poly-d-lysine hydrobromide (Sigma Cat # P7280) at a concentration of 0.1 mg/ml to coat each well using a minimum volume of 0.2 ml/well. After coating for 5 minutes, the solution was aspirated and wells were rinsed thoroughly with sterile tissue culture grade water. After drying for 2 hours, plates were ready for use. Neuronal cultures were plated onto poly-lysine-coated plates at the same density as above. For the pilot study, some of the cultures were fed with 1:1 ratio of growth medium: neurobasal medium (GIBCO)+B-27 supplement (2%), while the rest of the cultures were fed with growth medium alone (Losi et al., 2006). For the main study, we used astroglial feeder layers to plate the neuronal cultures, and used a mix (1:1) of growth medium with neurobasal medium+B-27 supplement for feeding the cultures.
After 11-14 days in culture, neuronal cells were confluent and experiments were performed. Cells were washed twice using sterile Locke's buffer (154 mM NaCl, 5.6 mM KCl, 2.3 mM CaCl2, 3.6 mM NaHCO3, 5.5 mM D-glucose, 5 mM HEPES, pH 7.4), and then exposed to the various treatment compounds. […] After 15 minutes, cultures were washed twice and incubated overnight in media stock. After 24 hours, supernatants and lysates were collected to measure LDH activity. LDH activity was measured by the reduction of NAD, which was utilized in the stoichiometric conversion of a tetrazolium dye using a kit (Sigma TOX-7). Supernatants were removed from the wells and centrifuged before LDH measurements. The adherent cells were lysed to obtain total LDH. […]

[3] = guinea pig brain membrane preparation (Table 29), read-out: Ki
[4] = Plate #5, astrocyte-coated rat neurons, GM fed
[5] = Plate #4, poly-lysine-coated rat neurons, GM/NB + B-27 fed
[6] = astrocyte-coated rat neurons, GM/NB + B-27 fed
[7] = [3H]MK-801 (1 nM), guinea pig brain membrane preparation, read-out: Ki (binding affinity)

Compound | Ki [1, 3] | Relative affinity [1] | also measured
CC12CC3C4CC5(C)CC3C(C1)C(O)(C5)C4C2 [MDT-47, 4,9-dimethyl-1-hydroxydiamantane] | > 1000 µM | – | –
O=C1C2CC3C4CC5CC3C1C(C5)C4C2 [MDT-59] | > 1000 µM | – | –
NC12CC3C4CC5(N)CC3C(C1)C(C5)C4C2 [MDT #5] | – | – | % (Control Wash = 100) [2, 4]: 123%; Secreted LDH (Avg) [2, 4]: 0.25; Secreted/(total + secreted) (Avg) [2, 4]: 7.21; Total LDH (Avg) [2, 4]: 3.27
OC12CC3CC4C5CC(CC41)CC2C5C3 [MDT-10] | > 1000 µM | – | –
OC12C3CC4CC5C3CC3C6CC(CC31)CC2(C4)C56 [MDT-40] | > 1000 µM | – | –
OC12CC3CC4C1CC1CC4C(O)(C3)C2C1 [MDT #13] | – | – | % (Control Wash = 100) [2, 5]: 139%; Secreted LDH (Avg) [2, 5]: 0.54; Secreted/(total + secreted) (Avg) [2, 5]: 15.25; Total LDH (Avg) [2, 5]: 2.99; % (Control Wash = 100) [2, 6]: 276%; Secreted LDH (Avg) [2, 6]: 0.85; Secreted/(total + secreted) (Avg) [2, 6]: 19.97; Total LDH (Avg) [2, 6]: 3.41
OC12CC3C4CC5C6CC7(O)CC5C(C4C1)C(C2)(C7)C36 [MDT-15] | > 1000 µM | – | –
mixture of 1-methyl-2-aminodiamantane and 1-methyl-6-aminodiamantane [MDT-31] | 3.9 ± 0.2 µM | 0.187 | –
CC12CC3CC4C1CC1(C(=O)O)CC2C(C3)C4(C)C1 [MDT-46, 1,6-dimethyl-4-diamantanecarboxylic acid] | > 1000 µM | – | –
NC12CC3CC4C1CC1CC2C(C3)C4(N)C1 [MDT-4] | 99.6 ± 7.6 µM | 0.007 | –
1,6-dimethyl-2-aminodiamantane mixture [MDT-6] | 4.6 ± 0.18 µM | 0.159 | –
OC12CC3CC4C1CC1C5CC6CC1C2C(C6)(C3)C54 (centres unmarked) [MDT-41] | > 1000 µM | – | –
O=NC12CC3C4CC5CC3C(C1)C(C5)C4C2 [MDT-27] | > 1000 µM | – | –
CC12CC3(N)CC4C5CC(N)(CC41)CC2C5C3 [MDT-28, 1-methyl-4,9-diaminodiamantane] | > 1000 µM | – | –
O=C(O)C12CC3CC4C1CC1CC2C(C3)C4(C(=O)O)C1 [MDT-39] | > 1000 µM | – | –
CC12CC3CC4C1CC1(N)CC2C(C3)C4(C)C1 [MDT-23 (prep from Example 5)] | 3 ± 0.9 µM | 0.243 | –
CC12CC3CC4C1CC1(N)CC2C(C3)C4(N)C1 [MDT-29] | 41 ± 10.7 µM | 0.018 | –
OC12CC3C4CC5CC3C(C1)C(C5)C4C2 [MDT-11] | > 1000 µM | – | –
OC12CC3C4CC5(O)CC3C(C1)C(C5)C4C2 [MDT-14] | > 1000 µM | – | –
NC12CC3CC4C5CC(CC41)CC2C5C3 [MDT #2] | – | – | % (Control Wash = 100) [2, 4]: 118%; Secreted LDH (Avg) [2, 4]: 0.23; Secreted/(total + secreted) (Avg) [2, 4]: 6.93; Total LDH (Avg) [2, 4]: 3.09
1,6-dimethyl-4-aminodiamantane mixture [MDT-7] | 9.9 ± 0.45 µM | 0.074 | –
NCC12CC3CC4C5CC(CC41)CC2C5C3 [MDT-56] | 9.8 ± 4.5 µM | 0.074 | –

Compound | Ki [1, 3] | Relative affinity [1] | also measured
CC12CC3CC4C1CC1(CN)CC2C(C3)C4(C)C1 [MDT-65] | 7.3 ± 1.1 µM | 0.100 | –
O=NC12CC3CC4C5CC(CC41)CC2C5C3 [MDT-26] | > 1000 µM | – | –
CC12CC3C4CC5(C)CC3C(C1)C(CN)(C5)C4C2 [MDT-63] | 5.1 ± 0.3 µM | 0.143 | –
CC12CC3(N)CC4C5CC(CC41)CC2C5C3 (single isomer, unassigned) [MDT-22 (prep from Example 7)] | 10.5 ± 1 µM | 0.070 | –
OC12CC3CC4C1CC1CC4C(O)(C3)C2C1 [MDT-13] | > 1000 µM | – | –
CC12CC3CC4C1CC1(N)CC2C(C3)C4(C)C1 [MDT-23 (prep from Example 4)] | 3.9 ± 0.07 µM | 0.187 | –
NC12CC3C4CC5C6CC7CC5C(C4C1)C(C7)(C2)C63 [MDT-49, 9-amino-triamantane] | – | 0.002 | Ki [1, 7]: 389 µM
Cl.NCC12CC3C4CC5CC3C(C1)C(C5)C4C2 [MDT-61] | 8 ± 0.9 µM | 0.091 | –
NC12CC3C4CC5(N)CC3C(C1)C(C5)C4C2 [MDT-5] | 268 ± 19 µM | 0.003 | –
OC12CC3C4CC5C6CC7CC5C(C4C1)C(C7)(C2)C63 [MDT-42] | > 1000 µM | – | –
NC12CC3CC4C5CC(CC41)CC2C5C3 [MDT-2] | 6.4 ± 0.13 µM | 0.114 | –
CC12CC3CC4C1CC1(N)CC2C(C3)C4(C)C1 [MDT-33, 1,6-dimethyl-4-aminodiamantane] | 7.8 ± 0.9 µM | 0.094 | –
NC12CC3CC4C5CC(CC41)CC2C5C3 [MDT-1] | 7.5 ± 2.4 µM | 0.097 | –
mixture of 4-methyl-9-aminodiamantane and 4-aminodiamantane [MDT-34] | > 1000 µM | – | –
CC(N)C12CC3CC4C5CC(CC41)CC2C5C3 (centres unmarked) [MDT-57] | 4 ± 0.1 µM | 0.183 | –
mixture of 1-amino-4-methyldiamantane and 2-amino-4-methyldiamantane [MDT-32] | 11.4 ± 3.7 µM | 0.064 | –
CC12CC3C4CC5(C)CC(C(C1)C3(N)C5)C4(N)C2 [MDT-53, 4,9-dimethyl-1,6-diaminodiamantane] | 112 ± 14 µM | 0.007 | –
3-amino-triamantane [MDT-48] | – | 0.052 | Ki [1, 7]: 14 µM
CC12CC3C4CC5(C)CC3C(C1)C(C(=O)O)(C5)C4C2 [MDT-52, 4,9-dimethyl-1-diamantanecarboxylic acid] | > 1000 µM | – | –
CC12CC3C4CC5CC3C(C1)C(C5)C4C2 [MDT-60] | > 1000 µM | – | –
NC12CC3CC4C5CC(CC41)CC2C5C3 [MDT #1] | – | – | % (Control Wash = 100) [2, 4]: 99%; Secreted LDH (Avg) [2, 4]: 0.18; Secreted/(total + secreted) (Avg) [2, 4]: 5.81; Total LDH (Avg) [2, 4]: 2.96
